From ChEMBL document CHEMBL6182941, “Prodrugs Targeting Prostate-Specific Membrane Antigen against Prostate Cancer” (J Med Chem, 2025)
pIC50, pKi: −log10 of the molar value.

Columns and labels:
[1] = molecular target: T1, Glutamate carboxypeptidase 2 (Homo sapiens, UniProt Q04609); experiment: Binding affinity to human recombinant PSMA in LNCaP cells assessed as inhibition constant; assay type: cell-based
[2] = molecular target: T2, N-acetylaspartylglutamate synthase A (Homo sapiens, UniProt Q8IXN7); experiment: Binding affinity to NAAG synthetase A (unknown origin) assessed as inhibition constant
T2 sequence (Q8IXN7 whole entry): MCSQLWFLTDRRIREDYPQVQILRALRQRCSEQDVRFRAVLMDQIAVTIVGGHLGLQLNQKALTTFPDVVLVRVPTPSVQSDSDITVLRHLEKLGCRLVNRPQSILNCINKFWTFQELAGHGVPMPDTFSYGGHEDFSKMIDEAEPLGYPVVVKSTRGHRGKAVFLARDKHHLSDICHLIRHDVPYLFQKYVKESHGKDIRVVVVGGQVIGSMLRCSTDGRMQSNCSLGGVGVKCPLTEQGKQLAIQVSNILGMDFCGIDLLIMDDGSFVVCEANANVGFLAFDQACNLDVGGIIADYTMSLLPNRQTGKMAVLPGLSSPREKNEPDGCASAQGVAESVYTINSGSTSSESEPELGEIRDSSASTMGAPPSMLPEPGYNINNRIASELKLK

[3] = molecular target: N-acetylated-alpha-linked acidic dipeptidase 2 (Homo sapiens, UniProt Q9Y3Q0); experiment: Binding affinity to NAALAD-2 (unknown origin) assessed as inhibition constant
[4] = molecular target: T1, Glutamate carboxypeptidase 2; experiment: Inhibition of human recombinant PSMA
A549 = experiment: Cytotoxicity against human A549 cells assessed as reduction in cell growth; assay type: functional, cell-based
LNCaP [5] = experiment: Cytotoxicity against human LNCaP cells assessed as cell death measured for 24 hrs; assay type: functional, cell-based
KB = experiment: Cytotoxicity against human KB cells assessed as reduction in cell growth; assay type: functional, cell-based
[6] = Cytotoxicity against human PC3-PIP cells; settings: PC3-PIP cell
[7] = Cytotoxicity against human PC-3 flu cells
[8] = Cytotoxicity against human PC-3 flu cells assessed as reduction in cell viability incubated for 72 hrs by CCK-8 assay
[9] = Cytotoxicity against human PC3-PIP cells assessed as reduction in cell viability incubated for 72 hrs by CCK-8 assay
Cathepsin B = Cathepsin B (Homo sapiens, UniProt P07858); experiment: Inhibition of cathepsin B (unknown origin)
[10] = Antitumor activity against human PC3-PIP cells xenografted in […] assessed as reduction in tumor volume at 80 mg/kg, IP; assay type: functional, PC3-PIP cell
[11] = Antiproliferative activity against human PC3-PIP cells assessed as reduction in cell viability incubated for 72 hrs by XTT assay
[12] = Cytotoxicity against human HK-2 cells assessed as reduction in cell viability incubated for 48 hrs by MTT assay; assay type: toxicity, cell-based
CWR22R = experiment: Cytotoxicity against human 22Rv1 cells assessed as reduction in cell viability incubated for 48 hrs by MTT assay; assay type: functional, cell-based; settings: 22Rv1, 48 h
LNCaP [13] = experiment: Cytotoxicity against human LNCaP cells assessed as reduction in cell viability incubated for 72 hrs by MTT assay
DU-145 = experiment: Cytotoxicity against human DU-145 cells assessed as reduction in cell viability incubated for 72 hrs by MTT assay; settings: DU-145, 72 h
[14] = Half life in BALB/c mouse at 67 mg/kg by LC-MS/MS analysis; assay type: ADME, organism-based; settings: in vivo

T1 sequence (Q04609 whole entry): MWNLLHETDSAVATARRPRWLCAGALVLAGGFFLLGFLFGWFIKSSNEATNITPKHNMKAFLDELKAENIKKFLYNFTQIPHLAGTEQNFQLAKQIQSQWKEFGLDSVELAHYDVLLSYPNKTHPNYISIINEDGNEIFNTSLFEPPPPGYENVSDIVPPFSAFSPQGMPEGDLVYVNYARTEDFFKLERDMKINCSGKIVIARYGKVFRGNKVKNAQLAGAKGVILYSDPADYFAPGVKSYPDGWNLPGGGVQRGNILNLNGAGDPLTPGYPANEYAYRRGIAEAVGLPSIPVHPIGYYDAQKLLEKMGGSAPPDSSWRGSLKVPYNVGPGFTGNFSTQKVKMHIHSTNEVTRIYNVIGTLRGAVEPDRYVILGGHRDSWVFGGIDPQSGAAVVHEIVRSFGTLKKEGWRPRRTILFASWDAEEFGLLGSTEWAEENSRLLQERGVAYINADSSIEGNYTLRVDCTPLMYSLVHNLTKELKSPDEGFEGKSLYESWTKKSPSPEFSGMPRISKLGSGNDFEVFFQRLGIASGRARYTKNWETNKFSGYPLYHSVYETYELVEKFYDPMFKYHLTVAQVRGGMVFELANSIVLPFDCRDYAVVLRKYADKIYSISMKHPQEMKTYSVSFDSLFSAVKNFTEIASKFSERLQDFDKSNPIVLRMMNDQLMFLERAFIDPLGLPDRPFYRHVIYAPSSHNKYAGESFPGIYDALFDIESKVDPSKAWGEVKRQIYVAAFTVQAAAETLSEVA
Sequence of N-acetylated-alpha-linked acidic dipeptidase 2 (Q9Y3Q0 whole entry): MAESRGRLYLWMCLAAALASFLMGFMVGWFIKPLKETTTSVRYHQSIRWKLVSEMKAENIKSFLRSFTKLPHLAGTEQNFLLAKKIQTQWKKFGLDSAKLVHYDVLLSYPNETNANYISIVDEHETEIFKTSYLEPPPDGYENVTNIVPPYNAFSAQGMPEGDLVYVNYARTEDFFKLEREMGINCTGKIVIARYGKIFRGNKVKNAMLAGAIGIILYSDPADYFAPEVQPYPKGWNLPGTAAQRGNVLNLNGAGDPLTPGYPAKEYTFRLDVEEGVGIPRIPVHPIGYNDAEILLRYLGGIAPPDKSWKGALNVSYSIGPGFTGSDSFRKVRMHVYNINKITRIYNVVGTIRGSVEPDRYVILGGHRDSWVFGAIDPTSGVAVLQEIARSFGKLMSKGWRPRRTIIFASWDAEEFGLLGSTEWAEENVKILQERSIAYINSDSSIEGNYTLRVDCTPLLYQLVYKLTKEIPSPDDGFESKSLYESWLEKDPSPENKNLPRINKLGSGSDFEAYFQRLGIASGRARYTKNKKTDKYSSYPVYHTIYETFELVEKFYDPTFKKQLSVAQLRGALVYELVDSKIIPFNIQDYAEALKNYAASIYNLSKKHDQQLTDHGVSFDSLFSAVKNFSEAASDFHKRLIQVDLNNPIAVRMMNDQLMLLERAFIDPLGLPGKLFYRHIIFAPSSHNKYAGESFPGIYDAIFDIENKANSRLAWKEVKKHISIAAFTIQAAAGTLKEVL

NCCCC[C@H](NC(=O)N[C@@H](CCC(=O)O)C(=O)O)C(=O)O
pKi [1]: 7.92

O=C(O)CC[C@H](NC(=O)N[C@@H](CCC(=O)O)C(=O)O)C(=O)O
pKi [2]: 8.10

O=C(O)CCC(CP(=O)(O)O)C(=O)O (stereo not given)
pKi [3]: ~9.56

CSC[C@@H](NC(=O)N[C@H](CCC(=O)O)C(=O)O)C(=O)O
pIC50 [4]: 7.82

CCCC(=O)OCN(C(=O)[C@@H](NC(=O)[C@H]1CCCCN1C)[C@@H](C)CC)[C@H](C[C@@H](OC(C)=O)c1nc(C(=O)N[C@@H](Cc2ccc(O)cc2)C[C@H](C)C(=O)NNC(=O)OCCSSC[C@H](NC(=O)[C@H](CC(=O)O)NC(=O)[C@H](CC(=O)O)NC(=O)Cc2ccc(CNC(=O)NCCCC[C@@H](NC(=O)N[C@H](CCC(=O)O)C(=O)O)C(=O)O)cc2)C(=O)O)cs1)C(C)C
pIC50 (A549): 9.05 | pIC50 (LNCaP [5]): ~7.89 | pIC50 (KB): 9.22

CC[C@@H](C)[C@H]([C@H](CC(=O)N1CCC[C@@H]1[C@@H](OC)[C@H](C)C(=O)N[C@@H](C)[C@H](O)c1ccccc1)OC)N(C)C(=O)[C@H](NC(=O)[C@@H](C(C)C)N(C)C(=O)OCc1ccc(NC(=O)[C@@H](CCCNC(N)=O)NC(=O)[C@@H](NC(=O)CCCCCN2C(=O)CC(SC[C@H](NC(=O)[C@H](CCC(=O)O)NC(=O)[C@H](CCC(=O)O)NC(=O)[C@H](CCC(=O)O)NC(=O)CCCCCNC(=O)[C@H]3CC[C@H](CNC(=O)CC[C@@H](NC(=O)N[C@H](CCC(=O)O)C(=O)O)C(=O)O)CC3)C(=O)NCCCCCC(=O)N[C@@H](CCCCNC(=O)CCCCC[N+]3=C(/C=C/C=C/C=C4/N(C)c5ccc6ccccc6c5C4(C)C)C(C)(C)c4c3ccc3ccccc43)C(=O)O)C2=O)C(C)C)cc1)C(C)C (stereo not given in full)
pIC50 [6]: 8.36 | pIC50 [7]: 8.33 | pIC50 [8]: 7.77 | pIC50 [9]: 9.08

CC[C@@H](C)[C@H]([C@H](CC(=O)N1CCC[C@@H]1[C@@H](OC)[C@H](C)C(=O)N[C@@H](C)[C@H](O)c1ccccc1)OC)N(C)C(=O)[C@@H](NC(=O)[C@H](C(C)C)N(C)C(=O)OCc1ccc(NC(=O)[C@@H](CCCNC(N)=O)NC(=O)[C@H](NC(=O)CCCCCCC(=O)NCCCC[C@@H](NC(=O)N[C@H](CCC(=O)O)C(=O)O)C(=O)O)C(C)C)cc1)C(C)C
pIC50 (Cathepsin B): ~10.40 | Activity [10]: 62.4 mm3 | pIC50 [11]: 8.41

CC(=O)O[C@H]1C(=O)[C@@]2(C)[C@H]([C@H](OC(=O)c3ccccc3)[C@]3(O)C[C@H](OC(=O)[C@H](OC(=O)CSSCC(=O)NCCNC(=O)CC[C@@H](NC(=O)N[C@H](CCC(=O)O)C(=O)O)C(=O)O)[C@@H](NC(=O)c4ccccc4)c4ccccc4)C(C)=C1C3(C)C)[C@]1(OC(C)=O)CO[C@@H]1C[C@@H]2O
IC50 at 48 h [12]: 14.2 nM | pIC50 (CWR22R; read-out: IC50): 6.92

CC[C@H](C)[C@@H]([C@@H](CC(=O)N1CCC[C@H]1[C@H](OC)[C@@H](C)C(=O)N[C@H](C)[C@@H](O)c1ccccc1)OC)N(C)C(=O)[C@@H](NC(=O)[C@H](C(C)C)N(C)C(=O)OCc1ccc(NC(=O)[C@H](CCCNC(N)=O)NC(=O)[C@@H](NC(=O)CCCCCN2C(=O)CC(SCCC(=O)NC(Cc3cn(CCOCCNCCCCCCOc4cc(OCCCc5c(C)n[nH]c5C)cc(C(=O)O)c4)nn3)C(=O)NCCCCCC(=O)NCCCC[C@H](NC(=O)N[C@@H](CCC(=O)O)C(=O)O)C(=O)O)C2=O)C(C)C)cc1)C(C)C (stereo not given in full)
pIC50 (LNCaP [13]): 8.27 | pIC50 (DU-145): 6.50

C/C=C(/C)C(=O)O[C@H]1C(C)=C2[C@H]([C@@H]1OC(=O)CCCCCCC)[C@@](C)(OC(C)=O)C[C@H](OC(=O)CCCCCCCCCCCNC(=O)C[C@H](N)C(=O)N[C@@H](CCC(=O)N[C@@H](CCC(=O)N[C@@H](CCC(=O)N[C@@H](CCC(=O)O)C(=O)O)C(=O)O)C(=O)O)C(=O)O)[C@@]1(O)[C@H]2OC(=O)[C@@]1(C)O [MIPSAGARGIN]
half-life [14]: 4.9 h

CC(=O)O[C@H]1C(=O)[C@@]2(C)[C@H]([C@H](OC(=O)c3ccccc3)[C@]3(O)C[C@H](OC(=O)[C@H](O)[C@@H](NC(=O)c4ccccc4)c4ccccc4)C(C)=C1C3(C)C)[C@]1(OC(C)=O)CO[C@@H]1C[C@@H]2O [PACLITAXEL]
pIC50 (CWR22R): 6.25
